Several values for one entry are separate records, joined by “and”; a condition that tells them apart may be missing. Equal values may be shown once.

Twelve molecules from PMC8400311, “Novel Anti-Melanogenic Compounds, (Z)-5-(Substituted Benzylidene)-4-thioxothiazolidin-2-one Derivatives: In Vitro and In Silico Insights” (Molecules, 2021) can be followed below.

Series [1] concerns the target mushroom tyrosinase. The series is described as follows: Mushroom tyrosinase inhibition assay. It is filed as biochemical. Particulars: for IC50: L-tyrosine as substrate, mean of 3 experiments, read-out: IC50 against mushroom tyrosinase; for fold lower tyrosinase inhibitory activity than 2b: ratio of IC50 values vs 2b. The procedure:
The absorbances of dopachrome produced in each well during incubation was measured at 450 nm using a microplate reader (VersaMax™, Molecular Devices, Sunnyvale, CA, USA). […] All experiments were independently conducted 3 times. To calculate the % inhibition of tyrosinase activity, the following formula was used: % inhibition = […], where A means the optical density of the test samples and B means the optical density of the non-treated control. To calculate the concentration necessary for 50% inhibition of enzyme activity (IC50), the % tyrosinase inhibition of each compound was obtained at 3 or more different concentrations. IC50 values were calculated by constructing a linear regression curve showing the concentration of the (Z)-BTTZ compounds on the x-axis and percentage inhibition on the y-axis. To obtain a negative control dimethyl sulfoxide (DMSO) was added instead of the (Z)-BTTZ compounds.

Series [2] deals with B16F10 melanoma cells. Nature of the series: Cell viability, EZ-Cytox assay. It is filed as cell-based, murine. Particulars: concentrations ≤25 µM; 24 and 48 h for 2b and 2f, respectively. The procedure:
Before examining the inhibitory effects of compounds 2b and 2f on tyrosinase and melanin biosynthesis, we investigated their cytotoxic effects using murine B16F10 melanoma cells. The cells were treated with different concentrations of 2b or 2f (0, 1, 2.5, 5, 10, or 25 µM) for 24 and 48 h (Figure 7), respectively, and the cell viabilities were assessed using the EZ-Cytox assay.
Cell viability assays of compounds 2b and 2f were performed using B16F10 melanoma cells and the EZ-Cytox assay (EZ-3000, DoGenBio, Seoul, Korea), as previously described. Briefly, cells were seeded at a density of 1 × 10^4 cells/well in a 96-well plate for 24 h, and then were exposed to different concentrations (0, 1, 2.5, 5, 10, or 25 µM) of 2b or 2f and incubated at 37 °C for 24 and 48 h, respectively. EZ-Cytox solution (10 µL) was then added to each well and cells were incubated at 37 °C for 2 h. Absorbances were measured at 450 nm using a microplate reader (VersaMax^TM, Molecular Devices, Sunnyvale, CA, USA). Each assay was performed in triplicate.
Figure 7 The cytotoxic effects of compounds 2b (a) and 2f (b) on B16F10 melanoma cells at concentrations of 1, 2.5, 5, 10, or 25 µM. Cell viabilities were determined using the EZ-Cytox assay and are expressed as percentages versus non-treated controls. Bars present standard errors.

Series [3] relates to B16F10 melanoma cells. The series is described as follows: Melanin content assay in α-MSH-stimulated cells. It is filed as cell-based, murine. Conditions: for reduction in melanin content: 48 h; for melanin level versus non-treated controls: 48 h (α-MSH alone 1.61-fold). The procedure:
Melanin content assays were used to evaluate the inhibitory effects of compounds 2b and 2f on α-MSH-stimulated melanogenesis. […] The inhibitory activities on α-MSH-stimulated melanogenesis were determined by measuring melanin optical densities. The anti-melanogenesis activities of compounds 2b and 2f were assessed using a standard melanin content assay with minor modifications. Briefly, B16F10 cells were seeded at a density of 5 × 10^4/well in a 24-well plate and allowed to adhere to wells in a DMEM solution containing penicillin/streptomycin (100 IU/100 µg/mL) and 10% heat-inactivated FBS in a standard humidified 5% CO2 atmosphere at 37 °C. […] Cells were then rinsed twice with PBS and lysed in 200 µL of 1N NaOH containing 10% dimethyl sulfoxide (DMSO) for 1 h at 60 °C. Lysates were transferred to the wells of a 96-well plate, and melanin absorbances were measured at 405 nm using a microplate reader (VersaMax^TM, Molecular Devices, Sunnyvale, CA, USA). All experiments were conducted three times in triplicate. […] Bars represent standard errors.

The subject of series [4] is cellular tyrosinase in B16F10 melanoma cells. The series is described as follows: Cellular tyrosinase activity assay (L-DOPA oxidation) in α-MSH-stimulated cells. It is filed as cell-based, murine. Conditions: for reduction in cellular tyrosinase activity: 48 h; for cellular tyrosinase activity versus non-treated cells: 48 h (α-MSH alone 2.19-fold). The procedure: The inhibitory activities of compounds 2b and 2f against cellular tyrosinase were assessed using α-MSH-stimulated melanoma cells. […] The inhibitory effects on tyrosinase activity were evaluated by measuring optical densities.
Tyrosinase activities were assessed by determining the L-DOPA oxidation rate, as described previously with minor modifications. […] Cells were then rinsed twice with PBS, exposed to 100 µL of lysis buffer (90 µL of 50 mM phosphate buffer pH 6.8; 5 µL of 2 mM PMSF; 5 µL of 20% Triton), and frozen at −80 °C for 30 min. After defrosting, lysates were centrifuged at 12,000 g for 30 min at 4 °C, and supernatants (80 µL) were mixed with 10 mM L-DOPA (20 µL) in a 96-well plate. Absorbances were measured at 490 nm at 37 °C every 10 min for 1 h using a microplate reader (VersaMax^TM, Molecular Devices, Sunnyvale, CA, USA). All experiments were carried out three times in triplicate.
Bars represent standard errors.

In series [5] the test system is mushroom tyrosinase. The series is described as follows: Kinetic study of mushroom tyrosinase inhibition (Lineweaver–Burk plots). Format: biochemical. Particulars: L-tyrosine 0.5–8.0 mM. As for the experimental part: To investigate the modes of action of compounds 2b and 2f, a kinetic study was performed using mushroom tyrosinase and different concentrations of L-tyrosine as a substrate in the presence of 2b or 2f. As depicted in Figure 4, inhibitory mechanisms were determined using Lineweaver–Burk plot analysis. The Lineweaver–Burk plot patterns of 2b and 2f were similar. The plots obtained at different concentrations of 2b and 2f merged at single points on the y-axis. Regardless of the concentration, the Vmax values of 2b and 2f were independent of concentration, whereas their KM values increased concentration-dependently.
Compounds 2b or 2f (10 µL, final concentrations: 0, 0.05, 0.1, or 0.2 µM for 2b and 0, 2, 4, or 8 µM for 2f) and mushroom tyrosinase solution (20 µL, 150 units) were added to the wells of a 96-well plate containing aqueous solutions (170 µL) containing L-tyrosine at 0.5, 1.0, 2.0, 4.0, or 8.0 mM (final concentrations), distilled water, and potassium phosphate buffer (final concentration: 14.7 mM, pH 6.5), in the ratio 10:9:10. Initial rates of dopachrome formation in reaction mixtures were calculated by measuring increases in absorbances at 492 nm (ΔOD492/min) using a microplate reader (VersaMax^TM, Molecular Devices, Sunnyvale, CA, USA). […] Modes of tyrosinase inhibition were determined using points of convergence. […]

As to `O=C1NC(=S)/C(=C/c2ccc(O)cc2)S1` [Compound 2a, (Z)-5-(4-Hydroxybenzylidene)-4-thioxothiazolidin-2-one], at mushroom tyrosinase [1], the IC50 stood at 28.1 ± 1.16 µM and the “fold lower tyrosinase inhibitory activity than 2b” value was 60 fold.

`O=C1NC(=S)/C(=C/c2ccc(O)cc2O)S1` [Compound 2b, (Z)-5-(2,4-Dihydroxybenzylidene)-4-thioxothiazolidin-2-one]: the “cytotoxic effect on B16F10 cells” value in the series with B16F10 melanoma cells [2] is reported as “Neither 2b nor 2f exhibited any significant cytotoxic effect”. In addition, in the series on mushroom tyrosinase [1] (ratio of IC50 values vs kojic acid), the “fold higher inhibitory potency than kojic acid (mushroom tyrosinase)” value was 141 fold and > 100 fold. In addition, the “reduction in melanin content” value is reported as 26% in the series with B16F10 melanoma cells [3] (5 µM compound, α-MSH 0.5 µM); 44% in the series on B16F10 melanoma cells [3] (10 µM compound, α-MSH 0.5 µM); 47% in the series with B16F10 melanoma cells [3] (25 µM compound, α-MSH 0.5 µM). Moreover, the “melanin level versus non-treated controls” value in the series on B16F10 melanoma cells [3] (5 µM compound, α-MSH 0.5 µM) is on record as 1.19 fold; in the series with B16F10 melanoma cells [3] (10 µM compound, α-MSH 0.5 µM), 0.91 fold; in the series on B16F10 melanoma cells [3] (25 µM compound, α-MSH 0.5 µM), 0.85 fold. Also, the “reduction in cellular tyrosinase activity” value in series [4] (5 µM compound, α-MSH 0.5 µM) is 16%; in series [4] (10 µM compound, α-MSH 0.5 µM), 32%; in series [4] (25 µM compound, α-MSH 0.5 µM), 45%. The “cellular tyrosinase activity versus non-treated cells” value in series [4] (5 µM compound, α-MSH 0.5 µM) worked out at 1.85 fold; in series [4] (10 µM compound, α-MSH 0.5 µM), 1.48 fold; in series [4] (25 µM compound, α-MSH 0.5 µM) it was 1.20 fold. Moreover, the “mode of mushroom tyrosinase inhibition” value in the series with mushroom tyrosinase [5] is reported as “competitive”.

In the case of `O=C1NC(=S)/C(=C/c2ccc(O)c(O)c2)S1` [Compound 2c, (Z)-5-(3,4-Dihydroxybenzylidene)-4-thioxothiazolidin-2-one], at mushroom tyrosinase [1], the IC50 amounted to 47.4 ± 2.18 µM.

With `COc1cc(/C=C2\SC(=O)NC2=S)ccc1O` [Compound 2d, (Z)-5-(4-Hydroxy-3-methoxybenzylidene)-4-thioxothiazolidin-2-one], on mushroom tyrosinase [1], the IC50 worked out at 70.8 ± 1 µM. Further, the “fold lower mushroom tyrosinase inhibitory activity than compound 2f” value with mushroom tyrosinase [1] (ratio of IC50 values vs 2f) is recorded as 4.6 fold.

Take `CCOc1cc(/C=C2\SC(=O)NC2=S)ccc1O` [Compound 2e, (Z)-5-(3-Ethoxy-4-hydroxybenzylidene)-4-thioxothiazolidin-2-one]: the 50% inhibitory concentration (IC50) at mushroom tyrosinase [1] was determined as 92.81 ± 0.89 µM.

Take `COc1cc(/C=C2\SC(=O)NC2=S)cc(OC)c1O` [Compound 2g, (Z)-5-(4-Hydroxy-3,5-dimethoxybenzylidene)-4-thioxothiazolidin-2-one]: the IC50 on mushroom tyrosinase [1] is 82.4 ± 1.26 µM.

For `O=C1NC(=S)/C(=C/c2ccccc2O)S1` [Compound 2h, (Z)-5-(2-Hydroxybenzylidene)-4-thioxothiazolidin-2-one], at mushroom tyrosinase [1], the IC50 came out at 147.6 ± 0.96 µM and the “fold lower tyrosinase inhibitory activity than 2b” value was 314 fold.

In the case of `O=C1NC(=S)/C(=C/c2ccc(O)c(Br)c2)S1` [Compound 2i, (Z)-5-(3-Bromo-4-hydroxybenzylidene)-4-thioxothiazolidin-2-one], the concentration for half-maximal inhibition (IC50) on mushroom tyrosinase [1] was found to be 26.3 ± 4.1 µM.

`COc1ccc(/C=C2\SC(=O)NC2=S)cc1` [Compound 2j, (Z)-5-(4-Methoxybenzylidene)-4-thioxothiazolidin-2-one]: on mushroom tyrosinase [1], the IC50 was 30.8 ± 1.41 µM.

Turning to `COc1ccc(/C=C2\SC(=O)NC2=S)c(OC)c1` [Compound 2k, (Z)-5-(2,4-Dimethoxybenzylidene)-4-thioxothiazolidin-2-one], the IC50 at mushroom tyrosinase [1] is 126.4 ± 0.46 µM.

With `COc1ccc(/C=C2\SC(=O)NC2=S)cc1OC` [Compound 2l, (Z)-5-(3,4-Dimethoxybenzylidene)-4-thioxothiazolidin-2-one], the IC50 on mushroom tyrosinase [1] amounted to 23.3 ± 0.28 µM.

As for `O=c1cc(CO)occ1O` [Kojic acid, reference compound], the “reduction in melanin content” value in the series on B16F10 melanoma cells [3] (25 µM compound, α-MSH 0.5 µM) amounted to 14%; in the series on B16F10 melanoma cells [3] (25 µM compound, α-MSH 1.0 µM), 45%. Also, the “melanin level versus non-treated controls” value in the series with B16F10 melanoma cells [3] (25 µM compound, α-MSH 0.5 µM) worked out at 1.38 fold. Also, the “reduction in cellular tyrosinase activity” value is given as 14% in series [4] (25 µM compound, α-MSH 0.5 µM) and 33% in series [4] (25 µM compound, α-MSH 1.0 µM).
